What was measured:
CFU-Mk from PV patients = experiment: Colony assay for hematopoietic progenitors, CFU-Mk, PV patients; assay type: cell-based; conditions: Homo sapiens, 336 h; PV (n = 10), day 14; read-out: IC50, CFU-Mk colony formation
Method: (§1) Figure 3 mTOR and JAK2 inhibitors preferentially suppress colony formation from hematopoietic progenitors of MPN patients as compared to healthy controls. Mononuclear cells from patients with PV or PMF (n = 10 each) or control subjects (n = 10) were plated at 10^5/mL in cytokine-supplemented methylcellulose medium for the growth of erythroid burst-forming unit (BFU-E) and granulocyte-macrophage colony-forming unit (CFU-GM), and CD34^+ cells (5×10^4/mL) were plated in collagen-based medium for megakaryocyte colony-forming unit (CFU-Mk). […] Colonies were enumerated on day 14 and expressed as a percentage of the colonies grown in control plates containing vehicle only.

[1] = test system: EEC from peripheral blood mononuclear cells of PV patients; experiment: EEC assay (erythropoietin-independent erythroid colonies), PV patients; conditions: Homo sapiens, PBMC, 240 h, read-out: IC50 of EEC growth
Ba/F3-EPOR VF cells [2] = experiment: Apoptosis (Annexin V flow cytometry), Ba/F3-EPOR VF; assay type: cell-based, mouse; conditions: for IC50: Mus musculus, 48 h, median, read-out: IC50 for apoptosis (Annexin V positive cells)
Method: (§2) Ba/F3-EPOR cells, both wt and VF, HEL and SET2 cells were plated at 2×10^4 in 96-well culture tissue plates with increasing concentrations of the drug(s), in triplicate, and the amount of viable cells was assessed at 48 h using the WST-1 assay (Roche, USA) after normalization to wells containing an equivalent volume of vehicle (DMSO) only. For clonogenic assay, 5×10^3 cells were plated in 0.5% agar in medium supplemented with 10% FBS (plus 1 U/mL EPO in case of Ba/F3-EPOR wt cells); variable amount of the drug(s) (or an equivalent volume of vehicle in control plates) was added once at the beginning of culture. Colonies were enumerated by inverted microscopy after 7 day incubation, in duplicate. Quantification of apoptotic cells was accomplished by flow cytometry using the Annexin-V-FLUOS Staining kit (Roche); at least 20,000 events were acquired. For cell cycle distribution analysis by flow cytometry, 1×10^6 cells were treated with ethanol 95%, RNase 10 µg/mL and propidium iodide […].
(§3) Results shown are the Mean±SD of at least three experiments. In panel B, the percentage of Annexin V-positive cells was measured in cultures of Ba/F3-EPOR VF cells exposed to varying amount of the drugs for 48 h; percentage was calculated after subtraction of background apoptosis in cells incubated without drug. Results shown are the Mean±SD of at least three experiments. (TIF) Click here for additional data file.

[3] = test system: Ba/F3-EPOR wt cells (JAK2 wild-type); experiment: Clonogenic assay in agar, Ba/F3-EPOR wt; assay type: cell-based; conditions: Mus musculus, 168 h, semisolid culture, 7 days, 1 U/mL EPO, read-out: IC50 of colony formation (clonogenic assay)
Method: as §2

[4] = test system: CFU-GM from healthy controls; experiment: Colony assay for hematopoietic progenitors, CFU-GM, healthy controls; assay type: cell-based; conditions: Homo sapiens, 336 h, Ctrl (n = 10), day 14, read-out: IC50, CFU-GM colony formation
Method: as §1

[5] = test system: CFU-Mk from healthy controls; experiment: Colony assay for hematopoietic progenitors, CFU-Mk, healthy controls; assay type: cell-based; conditions: Homo sapiens, 336 h; Ctrl (n = 10), day 14; read-out: IC50, CFU-Mk colony formation
Method: as §1

[6] = test system: Ba/F3-EPOR wt cells (JAK2 wild-type); experiment: Inhibition of proliferation assay (WST-1, 48 h), Ba/F3-EPOR wt; assay type: cell-based; conditions: Mus musculus, 1 U/mL EPO, mean±SD, read-out: IC50 of cell proliferation
Method: as §2

SET2 cells [7] = experiment: Cell cycle distribution analysis by flow cytometry, SET2; assay type: cell-based; conditions: Homo sapiens, SET-2; SET2, median concentration; read-out: concentration giving 50% reduction of cells in the S-phase compared to controls
Method: as §2

[8] = test system: Ba/F3-EPOR VF cells (JAK2V617F); experiment: Clonogenic assay in agar, Ba/F3-EPOR VF; assay type: cell-based; conditions: Mus musculus, 168 h, semisolid culture, 7 days, single drug, read-out: IC50 of colony formation (clonogenic assay)
Method: as §2

[9] = test system: CD34+ cells from healthy controls; experiment: CD34+ proliferation assay (WST-1, 48 h), healthy controls; assay type: cell-based; conditions: Homo sapiens, CD34+ cell; healthy subjects n = 5, 48 h, cytokine cocktail
Method: (§4) To measure the drug-induced inhibition of CD34^+ cell growth, purified cells were plated at 3·10^4 cells/well in IDMEM supplemented with cytokines and variable amounts of the drugs were added. Cell proliferation was evaluated using the WST-1 Assay (Roche, USA) after 48 h and results were normalized to wells containing vehicle only.
(§5) CD34^+ cells from patients with PMF (n = 6) or control subjects (Ctr; n = 5) were plated at 2×10^5/mL in 96-well culture tissue plates with increasing concentrations of the drugs, in triplicate; viable cells were assessed after 48 hrs using the WST-1 assay and normalized to wells containing an equivalent volume of vehicle (DMSO) only.

Ba/F3-EPOR VF cells [10] = experiment: Cell cycle distribution analysis by flow cytometry (propidium iodide), Ba/F3-EPOR VF; assay type: cell-based; conditions: Mus musculus, after 24 hours, median value, read-out: concentration giving 50% reduction of the cells in the S-phase compared to untreated cells
Method: as §2, §3

BFU-E from PV patients = experiment: Colony assay for hematopoietic progenitors, BFU-E, PV patients; assay type: cell-based; conditions: Homo sapiens, 336 h; PV (n = 10), day 14; read-out: IC50, BFU-E colony formation
Method: as §1

[11] = test system: BFU-E from healthy controls; experiment: Colony assay for hematopoietic progenitors, BFU-E, healthy controls; assay type: cell-based; conditions: Homo sapiens, 336 h; Ctrl (n = 10), day 14; read-out: IC50, BFU-E colony formation
Method: as §1

CFU-Mk from PMF patients = experiment: Colony assay for hematopoietic progenitors, CFU-Mk, PMF patients; assay type: cell-based; conditions: Homo sapiens, 336 h; MF (n = 10), day 14; read-out: IC50, CFU-Mk colony formation
Method: as §1

CFU-GM from PMF patients = experiment: Colony assay for hematopoietic progenitors, CFU-GM, PMF patients; assay type: cell-based; conditions: Homo sapiens, 336 h, MF (n = 10), day 14, read-out: IC50, CFU-GM colony formation
Method: as §1

[12] = test system: HEL cells (JAK2V617F mutated); experiment: Inhibition of proliferation assay (WST-1, 48 h), HEL; assay type: cell-based; conditions: Homo sapiens
Method: as §2

[13] = test system: CD34+ cells from PMF patients; experiment: CD34+ proliferation assay (WST-1, 48 h), PMF patients; assay type: cell-based; conditions: Homo sapiens, CD34+ cell; PMF patients n = 6, 48 h, cytokine cocktail
Method: as §4, §5

[14] = test system: SET2 cells (JAK2V617F mutated); experiment: Clonogenic assay in agar, SET2; assay type: cell-based; conditions: Homo sapiens, SET-2
Method: as §2

[15] = test system: HEL cells (JAK2V617F mutated); experiment: Clonogenic assay in agar, HEL; assay type: cell-based; conditions: Homo sapiens, Table 1
Method: as §2

[16] = test system: SET2 cells (JAK2V617F mutated); experiment: Inhibition of proliferation assay (WST-1, 48 h), SET2; assay type: cell-based; conditions: Homo sapiens, SET-2, SET2, 48 h
Method: as §2

SET2 cells [17] = experiment: Apoptosis (Annexin V flow cytometry), SET2; assay type: cell-based; conditions: Homo sapiens, SET-2; SET2, median
Method: as §2

BFU-E from PMF patients = experiment: Colony assay for hematopoietic progenitors, BFU-E, PMF patients; assay type: cell-based; conditions: Homo sapiens, 336 h; MF (n = 10), day 14; read-out: IC50, BFU-E colony formation
Method: as §1

[18] = test system: Ba/F3-EPOR VF cells (JAK2V617F); experiment: Inhibition of proliferation assay (WST-1, 48 h), Ba/F3-EPOR VF; assay type: cell-based; conditions: Mus musculus
Method: as §2

CFU-GM from PV patients = experiment: Colony assay for hematopoietic progenitors, CFU-GM, PV patients; assay type: cell-based; conditions: Homo sapiens, 336 h, PV (n = 10), day 14, read-out: IC50, CFU-GM colony formation
Method: as §1

[19] = SET2, Table 1, read-out: IC50, clonogenic assay
[20] = SET2, Table 3, read-out: IC50, clonogenic potential, single drug
[21] = SET2, running text b32, read-out: concentration preventing colony formation (mean value)
[22] = Table 3, read-out: IC50, proliferation, single drug
[23] = read-out: IC50, proliferation assay
[24] = BaF3, 48 h, Ba/F3 VF liquid culture maintained with Epo 1 U/mL, read-out: IC50 of cell proliferation in the presence of Epo
[25] = Ba/F3-EPOR VF, 48 h, single drug, cytokine-free medium, mean±SD, read-out: IC50 of cell proliferation

SMILES	IC50 (CFU-Mk from PV patients)	IC50 [1]	IC50 (Ba/F3-EPOR VF cells [2])	IC50 [3]	IC50 [4]	IC50 [5]	IC50 [6]	IC50 (SET2 cells [7])	IC50 [8]	IC50 [9]	IC50 (Ba/F3-EPOR VF cells [10])	IC50 (BFU-E from PV patients)	IC50 [11]	IC50 (CFU-Mk from PMF patients)	IC50 (CFU-GM from PMF patients)	IC50 [12]	IC50 [13]	IC50 (SET2 cells [17])	IC50 (BFU-E from PMF patients)	IC50 (CFU-GM from PV patients)	other results
Cc1cc(Nc2nc(N[C@@H](C)c3ncc(F)cn3)ncc2Cl)n[nH]1 [AZD1480]	44 ± 2 nM	19 ± 2 nM	800 nM	750 ± 100 nM	193 ± 13 nM	400 ± 12 nM	752 ± 30 nM	1500 nM	19 ± 11 nM	891 ± 100 nM	1200 nM	135 ± 19 nM	226 ± 17 nM	59 ± 3 nM	9 ± 3 nM	860 ± 20 nM	474 ± 30 nM	400 nM	27 ± 8 nM	46 ± 5 nM	IC50 [14, 19]: 35 ± 10 nM; IC50 [14, 20]: 35 ± 10 nM; IC50 [14, 21]: 35 nM; IC50 [15]: 460 ± 30 nM; IC50 [16, 22]: 90 ± 5 nM; IC50 [16, 23]: 90 ± 5 nM; IC50 [18, 24]: 707 ± 11 nM; IC50 [18, 25]: 313 ± 23 nM
CO[C@H]1C[C@@H]2CC[C@@H](C)[C@@](O)(O2)C(=O)C(=O)N2CCCC[C@H]2C(=O)O[C@H]([C@H](C)C[C@@H]2CC[C@@H](OCCO)[C@H](OC)C2)CC(=O)[C@H](C)/C=C(\C)[C@@H](O)[C@@H](OC)C(=O)[C@H](C)C[C@H](C)/C=C/C=C/C=C/1C [RAD001, Everolimus]	50 ± 5 nM	15 ± 10 nM	5000 nM	22 ± 10 nM	335 ± 16 nM	572 ± 13 nM	11000 nM	33000 nM	4 ± 2 nM	> 5000 nM	6500 nM	91 ± 15 nM	432 ± 22 nM	44 ± 5 nM	46 ± 13 nM	14000 ± 2800 nM	271 ± 100 nM	38000 nM	42 ± 10 nM	75 ± 4 nM	drug concentration at which an increase of apoptotic cells became appreciable (Ba/F3-EPOR VF cells [2]; followed by a plateau): > 3.3 µM; IC50 [14, 19]: 44 ± 15 nM; IC50 [14, 20]: 44 ± 15 nM; IC50 [14, 21]: 44 nM; IC50 [15]: 930 ± 10 nM; IC50 [16, 22]: 17000 nM; IC50 [16, 23]: 17000 nM; IC50 [18, 24]: 1230 nM; IC50 [18, 25]: 651 ± 50 nM
N#CC[C@H](C1CCCC1)n1cc(-c2ncnc3[nH]ccc23)cn1 [Ruxolitinib, ruxolitinib]	4 ± 2 nM	1.8 ± 1 nM	1300 nM	–	209 ± 40 nM	12 ± 5 nM	–	10000 nM	–	> 5000 nM	1870 nM	–	167 ± 70 nM	4 ± 3 nM	43 ± 4 nM	–	840 ± 300 nM	500 nM	46 ± 10 nM	39 ± 6 nM	–

From PMC3561413 (PLoS ONE, 2013)
